From patent publication US4239903A, “2-Aminotetralin derivatives and process for producing the same” (priority 1977, dated 1980) come the findings set out here.

The structures appear in SMILES notation. Counter-ions that a name gives are not always drawn. Like-named read-outs stand apart in the source and are kept apart here.

Series [1] in a line: Acute toxicity (LD50) in rats. As to conditions: rat, in vivo.
Series [2] has as its system contractile response of the stomach to vagal stimulation. Put plainly: Contractile response of the stomach to vagal stimulation in anesthetized dogs. The format is in vivo, dog (mongrel dogs of both sexes). As to conditions: for ED50: Canis lupus familiaris, iv, read-out: s.ID50 (dose causing 50% inhibition of the contractile response of the stomach to vagal stimulation); for s.ID50 /c.ID50 (selectivity of antispasmodic effect): i.v., stomach vs colon. An excerpt:
The compounds of the present invention are further characterized by the following property. The compounds of the present invention have selectively stronger antispasmodic effect on the lower part of the digestive tract than on the upper part of the digestive tract, in contrast to conventional anticholinergic antispasmodics which act non-selectively on the digestive tract. The evidence for this selectivity is exemplified by the results shown for representative compounds of the present invention in Table 3. In Table 3, the s.ID50 and c.ID50 values represent the doses causing 50% inhibition of the contractile response of the stomach to vagal stimulation and 50% inhibition of the colonic contraction by pelvic nerve stimulation, respectively, in dogs. These values and their ratios (s.ID50 /c.ID50) indicate that these compounds have higher selectivity than mebeverine, as is clear from Table 3.
The determination of gastric motility was carried out according to the method described in European Journal of Pharmacology, 18, pp. 1-14 (1972).
More specifically mongrel dogs of both sexes weighing 8-15 kg were used. After anesthesizing the animals with 30 mg/kg (i.v.) of pentobarbital, the animals were fixed on their back and a midline incision was made in the upper abdomen. A rubber balloon filled with water was inserted into the stomach through an incision in the greater curvature. Changes in internal pressure of the balloon were recorded on a polygraph via a low pressure transducer. Electric stimulation (rectangular wave, 20 cps in frequency, 1 msec in duration, 8 V in voltage) was applied to the vagus nerve for 10 seconds every three minutes. The percent inhibition of the contractile response of the stomach was calculated from the relationship shown above.

Series [3] concerns colonic motility stimulated by neostigmine. In words: Effect on colonic motility stimulated by neostigmine in rats. Format: in vivo, rat (male STD Wistar strain). As to conditions: Rattus norvegicus, neostigmine-stimulated, dose at which inhibition was observed in 50% of rats.
Experiment in series [4]: as above
Format: in vivo, rat (male STD Wistar strain). To be noted: rat, in vivo.

In series [5] the test system is colonic contraction caused by stimulation of pelvic nerve. Put plainly: Effect on colonic contraction caused by stimulation of pelvic nerve in anesthetized dogs. The format is in vivo, dog (mongrel dogs of both sexes). To be noted: Canis lupus familiaris, iv; for ED50: read-out: c.ID50 (dose causing 50% inhibition of the colonic contraction by pelvic nerve stimulation); for inhibition in vivo at 0.1 mg/kg: read-out: % Inhibition of Colonic Contraction. From the text: The compounds of the present invention are extremely useful as medicines particularly acting on the lower digestive tract. […] N-Ethyl-N-[4-(3,4-dimethoxybenzoyloxy)butyl]-3-(4-methoxyphenyl)-2-propylamine hydrochloride (hereinafter referred to as "mebeverine") known as an antispasmodic for the lower digestive tract was used as a reference.
The values shown in Table 1 were obtained according to the following method [as disclosed in European Journal of Pharmacology, 18, pp. 1-14 (1972)].
Mongrel dogs of both sexes weighing 8-15 kg were used.
After intravenous anesthesizing with pentobarbital in a dose of 30 mg/kg, the animals were fixed on their back and subjected to ventrotomy along the midline of the lower abdomen. After a rubber balloon filled with water was inserted into the descending colon via the anus, 100 μg/kg of each compound was injected intravenously and changes in the internal pressure of the balloon were recorded on a polygraph through a low pressure transducer. Electric stimulation (rectangular wave, 50 cps in frequency, 1 msec in duration, 4 V in voltage) was applied to the pelvic nerve for 5 seconds every three minutes. The percent inhibition of the colonic contraction was calculated according to the following relationship. [formula]
c.ID50 values were determined by the same method as was used for Table 1.

[6] abbreviates: 100 μg/kg, i.v., pelvic nerve stimulation, anesthetized dogs.

By LD50 is commonly meant the dose at which mortality reaches 50%.

Regarding `CCN(CCCCCCOC(=O)c1ccc(OC)c(OC)c1)C1CCc2cc(OC)ccc2C1.Cl` (stereo not drawn) [Compound D, N-Ethyl-N-[6-(3,4-dimethoxybenzoyloxy)hexyl]-6-methoxy-1,2,3,4-tetrahydro-2-naphthylamine hydrochloride], the values for the LD50 in series [1] (iv) and in series [1] (po) were 35.3 mg/kg and 2830 mg/kg, respectively. The ED50 in series [2] (dogs) stood at 0.614 mg/kg; in series [3] (iv), 0.046 mg/kg; in series [3] (po), 5.5 mg/kg; in series [5] (dogs), 0.083 mg/kg. In addition, the “s.ID50 /c.ID50 (selectivity of antispasmodic effect)” value in series [2] (dogs) worked out at 7.40. Further, the safety margin (LD50/ED50) is 767 in series [4] (iv) and 515 in series [4] (po). In addition, the inhibition in vivo at 0.1 mg/kg in series [5] (setting [6]) was found to be 54.7%.

Regarding `CCN(CCCCOC(=O)c1ccc(OC)c(OC)c1)C(C)Cc1ccc(OC)cc1.Cl` (stereo not drawn) [Mebeverine, N-Ethyl-N-[4-(3,4-dimethoxybenzoyloxy)butyl]-3-(4-methoxyphenyl)-2-propylamine hydrochloride, reference compound], the LD50 in series [1] (iv) amounted to 17.7 mg/kg; in series [1] (po), 1540 mg/kg. The ED50 in series [2] is 0.823 mg/kg; in series [3] (iv), 0.151 mg/kg; in series [3] (po), 30 mg/kg; in series [5], over 0.3 mg/kg. Also, the “s.ID50 /c.ID50 (selectivity of antispasmodic effect)” value in series [2] (dogs) is given as under 2.74. In series [5], the inhibition in vivo at 0.1 mg/kg was 22%.

In the case of `CCN(CCCCOC(=O)c1ccc(OC)c(OC)c1)C1CCc2ccc(OC)cc2C1` (stereo not drawn) [Compound H, N-Ethyl-N-[4-(3,4-dimethoxybenzoyloxy)butyl]-7-methoxy-1,2,3,4-tetrahydro-2-naphthylamine hydrochloride], the inhibition in vivo at 0.1 mg/kg in series [5] (setting [6]) stood at 30.9%.

As for `COc1ccc2c(c1)CCC(N(CCCCOC(=O)c1ccc(OC)c(OC)c1)C(C)C)C2.Cl` (stereo not drawn) [Compound L, N-Isopropyl-N-[4-(3,4-dimethoxybenzoyloxy)butyl]-6-methoxy-1,2,3,4-tetrahydro-2-naphthylamine hydrochloride], the median lethal dose (LD50) in series [1] (po) stood at 1540 mg/kg. In addition, the ED50 in series [3] (iv) came out at 0.173 mg/kg; in series [3] (po), 17.3 mg/kg. For the same compound, the safety margin (LD50/ED50) in series [4] (po) was 89.

Consider `CCN(CCCCOC(=O)c1ccc(OC)c(OC)c1)C1CCc2cc(OC)ccc2C1.Cl` (stereo not drawn) [Compound C, N-Ethyl-N-[4-(3,4-dimethoxybenzoyloxy)butyl]-6-methoxy-1,2,3,4-tetrahydro-2-naphthylamine hydrochloride], for which the LD50 in series [1] (iv) is 19.3 mg/kg; in series [1] (po), over 2000 mg/kg. Further, the values for the ED50 in series [3] (iv) and in series [3] (po) were 0.169 mg/kg and 14.4 mg/kg, respectively. The figures for the safety margin (LD50/ED50) in series [4] (iv) and in series [4] (po) were 114 and over 139, respectively. Moreover, in series [5] (setting [6]), the inhibition in vivo at 0.1 mg/kg was determined as 20%.

As to `CCN(CCCCOC(=O)c1ccc(OC)c(OC)c1)C1CCc2cccc(OC)c2C1` (stereo not drawn) [Compound K, N-Ethyl-N-[4-(3,4-dimethoxybenzoyloxy)butyl]-8-methoxy-1,2,3,4-tetrahydro-2-naphthylamine hydrochloride], the inhibition in vivo at 0.1 mg/kg in series [5] (setting [6]) is 40%.

Take `CCN(CCCCOC(=O)c1ccc(OC)c(OC)c1)C1CCc2ccccc2C1` (stereo not drawn) [Compound A, N-Ethyl-N-[4-(3,4-dimethoxybenzoyloxy)butyl]-1,2,3,4-tetrahydro-2-naphthylamine hydrochloride]: the inhibition in vivo at 0.1 mg/kg in series [5] (setting [6]) amounted to 27.9%.

With `CCCN(CCCCOC(=O)c1ccc(OC)c(OC)c1)C1CCc2cc(OC)ccc2C1.Cl` (stereo not drawn) [Compound E, N-Propyl-N-[4-(3,4-dimethoxybenzoyloxy)butyl]-6-methoxy-1,2,3,4-tetrahydro-2-naphthylamine hydrochloride], the LD50 is 22.3 mg/kg in series [1] (iv) and 707 mg/kg in series [1] (po). Further, the ED50 in series [3] (iv) was 0.173 mg/kg; in series [3] (po), 17.3 mg/kg. For the same compound, the safety margin (LD50/ED50) is 129 in series [4] (iv) and 41 in series [4] (po). The inhibition in vivo at 0.1 mg/kg in series [5] (setting [6]) worked out at 22.4%.

`CCN(CCCCOC(=O)c1ccc(OC)c(OC)c1)C1CCc2cc(OC)c(OC)cc2C1.Cl` (stereo not drawn) [Compound F, N-Ethyl-N-[4-(3,4-dimethoxybenzoyloxy)butyl]-6,7-dimethoxy-1,2,3,4-tetrahydro-2-naphthylamine hydrochloride]: the median lethal dose (LD50) in series [1] (iv) is 16.2 mg/kg; in series [1] (po), 1540 mg/kg. Further, the ED50 in series [2] (dogs) stood at 0.266 mg/kg; in series [3] (iv), 0.025 mg/kg; in series [3] (po) it was 5.5 mg/kg; in series [5] (dogs), 0.057 mg/kg. In series [2] (dogs), the “s.ID50 /c.ID50 (selectivity of antispasmodic effect)” value was found to be 4.67. Moreover, the safety margin (LD50/ED50) in series [4] (iv) amounted to 648; in series [4] (po), 280. Besides, the inhibition in vivo at 0.1 mg/kg in series [5] (setting [6]) amounted to 63.8%.

`CCN(CCCCCCOC(=O)c1ccc(OC)c(OC)c1)C1CCc2ccccc2C1.Cl` (stereo not drawn) [Compound B, N-Ethyl-N-[6-(3,4-dimethoxybenzoyloxy)hexyl]-1,2,3,4-tetrahydro-2-naphthylamine hydrochloride]: the 50% lethal dose (LD50) in series [1] (iv) was 17.7 mg/kg; in series [1] (po), over 2000 mg/kg. Besides, the ED50 is 0.086 mg/kg in series [3] (iv) and 5.5 mg/kg in series [3] (po). Also, the safety margin (LD50/ED50) in series [4] (iv) was 206; in series [4] (po), over 364. Further, the inhibition in vivo at 0.1 mg/kg in series [5] (setting [6]) stood at 56%.

On to `CCN(CCCCCCOC(=O)c1ccc(OC)c(OC)c1)C1CCc2cc(OC)c(OC)cc2C1.Cl` (stereo not drawn) [Compound G, N-Ethyl-N-[6-(3,4-dimethoxybenzoyloxy)hexyl]-6,7-dimethoxy-1,2,3,4-tetrahydro-2-naphthylamine hydrochloride], for which the LD50 in series [1] (iv) was 17.5 mg/kg; in series [1] (po), 561 mg/kg. The ED50 was found to be 0.02 mg/kg in series [3] (iv) and 1.7 mg/kg in series [3] (po). The safety margin (LD50/ED50) worked out at 885 in series [4] (iv) and 330 in series [4] (po). In addition, the inhibition in vivo at 0.1 mg/kg in series [5] (setting [6]) is 54.2%.
